Assay results taken from patent US12344852B2, “Control of phenotype in plants” (GREENVENUS, LLC, priority 2016, dated 2025).

Assays:
[1] = tested on: IP:FT (ID14) transgenic ft mutant Arabidopsis plants; assay: Induction of flowering in IP:FT (ID14) transgenic ft mutant plants by ligand spray; type: in vivo
Method: Briefly, the DNA constructs shown in FIG. 3 were transformed into homozygous ft mutant Arabidopsis by flower dipping method. T1 seeds were harvested and germinated in soil. 5 days old T1 seedlings were sprayed with LIBERTY® 280SL herbecide to kill off non-transgenic plants. Selected transgenic plants were analyzed by Bar-specific quantitative PCR (qPCR) to check transgene copy number. Events with low copy number of the transgenes were grown in growth chambers to evaluate phenotypes. […] Select T1 plants were grown to maturity and seeds were used to generate T2 and T3 progeny plants. Further detailed evaluation of the transgenic lines were done in T2 and T3 generation plants (as described in Example 7).
At day 11, the ID14 plants produced more flowers and pods while the ft mutant plant just started bolting.
T2 seeds were harvested from ID14 T1 plants and several experiments were designed to test if the EcR gene switch is tightly controlling the transgenic FT expression in the absence of the activator ligand, and if the switch can be easily turned on by applying the ligand to express enough FT to induce early flowering. T2 seeds from six independent ID14 lines (three with single copy of the transgene and three—with two copies) were planted along with wild-type Arabidopsis and ft mutant and grown under long day (16 hours) and short day (8 hours) photoperiods. Genotype of these T2 plants: homozygous, heterozygous, and null were assessed by TaqMan qPCR as described in Example 7 with the exception of utilizing only the Bar gene-specific primers and probes Bar-F1/Bar-R1/Bar-T1 and the same PDS endogenous control AtPDS-F1/AtPDS-R1/AtPDS-T1. The T2 plants segregated the transgene as a single gene following the Mendelian inheritance.
The homozygous plants and null segregants that served as isogenic negative controls were subject to treatment with water (as a control) and 2 concentrations of methoxyfenozide: low (250 nM) and high (2.5 μM). Plants were treated in groups of 2 pots with 5 plants in each at short and long day photoperiods. Treatments were administered every other day starting from day 19 (long day) and 25 (short day) after planting and continued for about three weeks until all plants flowered.
ID14 T2 plants were maintained to maturity and T3 seeds were collected for further characterization of a selected single-copy line ID14-50. The homozygous and null segregant T3 plants along with Arabidopsis ft mutant plants were grown for three weeks before starting ligand application. Plants were divided in four groups in which up to twelve individual plants per genotype were counted. Each group was treated with different concentrations of methoxyfenozide (10, 50 and, 250 nM) and one group was mock treated (water). Treatments were applied every other day from day 17 (long day) or 24 (short day) for a period of approximately three weeks or until all plants flowered.
The observation was done over a period of ninety days from the day of planting. In both short day and long day photoperiod, the homozygous T3 ID14-50 plants exposed to ligand started flowering as early as fourteen days before any null plants and ft mutants while the untreated plants flowered at a similar time with null and ft mutant plants as shown in FIG. 18.

[2] = tested on: IP:ChsA RNAi (ID164) transgenic Petunia plants; assay: Flower color change in IP:ChsA RNAi (ID164) transgenic petunia after ligand spray; type: in vivo, Petunia hybrida variety V26; conditions: for time to change flower color from dark purple to variegate: one application
Excerpt: DNA construct ID164 (LB-IP:ChsA RNAi+35S:AP+CsVMV:NptII-RB) (SEQ ID NO:55) containing both the inducible promoter (IP) composed of 5 GAL4 regulatory elements (GAL4-RE) placed upstream of the minimal CaMV-35S promoter and the multidomain activator (AP) protein gene (VGE(E68V/V184I/Y204E) under the control of CaMV-35S promoter is shown in FIG. 20B. ID164 (SEQ ID NO:55) was used to transform wild type (wt) Petunia hybrid variety V26. The chalcone synthase hairpin transcript will not be express until the activator ligand (methoxyfenozide; Mtf) is provided to mobilize the activator proteins for binding to the GAL4-RE and switching the inducible promoter FS on. Transgene copy number was assessed for 56 TO transgenic plants by Tagman assay. 84% were low copies (two copies and below), 12.5% were high copy (three copies and above) and, few plants were nulls. Before ligand application most (98%) plants were flowering as dark purple color. Plants were divided in five groups, each group being treated differently. Treatment occurred every other day at a rate of 30 ml per plant. Treatment is sprayed on plants (leaves and flowers). Water is used as a mock treatment while INTREPID® 2F insecticide (Mtf being the active ingredient) is used as a ligand treatment. Group one was mock treated. Group two was treated with 2.5 uM Mtf in INTREPID® 2F insecticide form. Group three was treated with 1 mM Mtf (highest recommended dose on ornamental plants for INTREPID® 2F). Group four was treated with 2 mM Mtf and group five treated with 5 mM Mtf. […] When increasing the ligand concentration to 1 mM, change in flower color, dark purple to variegate, was observed faster (7 days post-treatment) on 50% of plants as shown in FIG. 23. With 2 mM and 5 mM ligand, one application (2 days post-treatment) was sufficient to change flower color from dark purple to variegate as shown in FIG. 24 and FIG. 25, respectively. Decrease in ChsA gene expression level in treated plants compared to their higher level before ligand treatment correlates with their change in flower color as shown in FIG. 21.

With `COc1cccc(C(=O)NN(C(=O)c2cc(C)cc(C)c2)C(C)(C)C)c1C` [methoxyfenozide, 3-methoxy-2-methylbenzoic acid 2-(3,5-dimethylbenzoyl)-2-(1,1-dimethylethyl)hydrazide] the “flowering of non-flowering IP:FT plants after spray” value ([1]; T1 ID14 plants sprayed with ligand) was “induced flowering and allowed for normal seed set”, the “time until treated ID14 plants started bolting” value ([1]; T1 plants not flowering within 3 weeks, 2.5 μM every other day, ft mutant did not) was at most 5 days and the “time after the first application until ID14 plants started to flower” value ([1]; T2 ID14 plants, ft mutant and untreated ID14 plants did not flower) was “Five”. The “flowered earlier than ft mutant plants” value ([1]; homozygous T2 ID14-50 plants, 250 or 2500 nM) was 22 to 30 days, the induction of flowering ([1]; homozygous T2 ID14 plants, 250 nM and 2.5 μM every other day) was “clearly observed in most homozygous plants” and the “started flowering before any null plants and ft mutants” value ([1]; homozygous T3 ID14-50 plants, 10, 50, 250 nM, short day and long day photoperiod) was “fourteen”. The “biomass production (number of rosette leaves as a proxy)” value ([1]; homozygous T3 ID14-50 plants, all ligand concentrations, both photoperiods) was “strong decrease”, the “time to flower color change from dark purple to light purple” value ([2]; 2.5 uM) was 10 days post-treatment and the “plants showing flower color change from dark purple to light purple” value ([2]; 2.5 uM, sprayed every other day, 30 ml per plant, INTREPID 2F form) was 50%. The “plants showing change in flower color, dark purple to variegate” value ([2]; 1 mM) was 50%, the “time to change in flower color, dark purple to variegate” value ([2]; 1 mM) was 7 days post-treatment and the “time to change flower color from dark purple to variegate” value ([2]; 2 mM) was 2 days post-treatment. For the same molecule, the “time to change flower color from dark purple to variegate” value ([2]; 5 mM) was 2 days post-treatment.
